Data as given in patent publication US20090143418A1, “Compositions and Methods for Preventing and Treating Hair Growth Cycle-Related Conditions” (THE REGENTS OF THE UNIVERSITY OF MICHIGAN, priority 2007, published 2009).
Where “and” joins values, the source holds several entries; their conditions need not be identical. Equal values may be shown once.

What was measured:
hirsutism = hirsutism patients; cited from earlier work
DCT-LacZ mice [1] = assay: DCT-LacZ (X-gal) staining of skin, hair follicles containing melanocyte progenitors; format: in vivo, mouse; conditions: for percentage of hair follicles containing DCT-LacZ+ cells, Average: 11.2 grays irradiation, rapamycin 4 mg/kg/day i.p.; for percentage of hair follicles containing DCT-LacZ+ cells, individual mouse: individual animals (Mouse 1-4), 4 mg/kg/day i.p., 4 mg/kg/day
Protocol: Mice: DCT-LacZ mice were backcrossed for 3 generations on a C57BL background.
Irradiation and Bone Marrow Transplant: Adult recipient mice were irradiated using a gamma cell irradiator. Mice received two doses of 560 rads each delivered 3 hours apart (FIGS. 1-4, FIG. 7, Table 1). Mice received 1,000,000 whole bone marrow cells isolated from a C57BL donor (FIGS. 1-4, FIG. 7, Table 1). Bone marrow cells were suspended in HBSS free with 2% Bovine Serum and injected via the retro orbital venous sinus. Where indicated, mice were sublethally irradiated with 650 rads and not subjected to bone marrow transplant (FIG. 6).
(§1) Rapamycin: Rapamycin (LC Laboratories) was administered by intraperitoneal injection. Rapamycin was reconstituted in ethanol (10 mg/ml or 1 mg/ml) and diluted into a solution of 5% Tween-80 (Sigma) and 5% PEG-400 (Hampton Research). The final volume injected was […]. Dosing and administration regimes were as indicated in Example II.
(§2) DCT-LacZ Staining A 2×2 cm patch of skin was harvested with dissecting scissors from euthanized DCT-LacZ mice. The skin patch was washed in phosphate buffer (0.5M Na2HPO4, 0.5M NaH2PO4, 2 mM MgC12, 0.02% NP-40, 0.01% sodium deoxycolate), and then fixed on ice in 0.2% glutaraldehyde in phosphate buffer for 30 minutes. While being fixed, the skin samples were microwaved in fixation solution on ice for 20 seconds. After fixation, the samples were washed and the adipose layer was removed by dissection. After another washing, the skin samples were stained in 1 mg/ml X-gal in phosphate buffer for 2.5 hours. After staining, samples were washed and roughly 1 mm wide sections were made manually using a razor blade. Sections were mounted in 70% glycerol.
To better understand the effects of rapamycin on melanocyte progenitors, transplantation experiments in mice bearing a DCT-LacZ transgene, which is expressed by melanocyte progenitors in hair follicles, were conducted (see, e.g., Mackenzie, M. A., et al., Dev Biol 192, 99-107 (1997); Nishimura, E. K., et al., Nature 416, 854-60 (2002); each herein incorporated by reference in their entireties). This transgene expresses the bacterial LacZ gene under the control of the melanocyte specific promoter for the gene dopachrome tautomerase. These mice were used as recipients in similar transplants where 1 million whole bone marrow cells were irradiated and transplanted. The mice were treated with 0.4 mg/kg of rapamycin every other day for the first two weeks and then with 4 mg/kg/day after that. These mice were sacrificed at regular intervals, and their skin harvested and stained with X-gal.
Animals were sacrificed at each time point and stained with X-gal. The percentage of hair follicles containing DCT-LacZ+ cells was quantified.

DCT-LacZ mice [2] = assay: Hair cycle stage (anagen) in skin sections of irradiated, transplanted DCT-LacZ mice; format: in vivo, mouse; conditions: 2/18 rapamycin treated animals versus 56% (10/18) vehicle; P=0.0001
Protocol: as §2
To better understand the effects of rapamycin on melanocyte progenitors, transplantation experiments in mice bearing a DCT-LacZ transgene, which is expressed by melanocyte progenitors in hair follicles, were conducted (see, e.g., Mackenzie, M. A., et al., Dev Biol 192, 99-107 (1997); Nishimura, E. K., et al., Nature 416, 854-60 (2002); each herein incorporated by reference in their entireties). This transgene expresses the bacterial LacZ gene under the control of the melanocyte specific promoter for the gene dopachrome tautomerase. […]

[3] = system: wild-type nonirradiated mice; assay: Depilation-induced hair cycle, skin pigmentation onset; format: in vivo, mouse; conditions: 4 mg/kg starting the day after depilation
Protocol: as §1
Depilation: Mice were anesthetized by intraperitoneal injection of 80 mg/kg of ketamine and 4 mg/kg of […] dissolved in HBSS. Final injection volume was 200 μl. The dorsal hair of the mice was then shaved with conventional clippers, and a commercial depilatory cream (Veet®) was applied liberally to an area of approximately 1.5×1.5 cm. After 5 minutes, the cream was washed off the mouse using warm water, and the mouse was gently dried using paper towels.
In analyzing the frequency of hair follicles that contained X-gal+ melanocytes, it became apparent that the hair follicles of rapamycin treated animals were less frequently in mature stages of the hair cycle (see FIG. 4). […] As such, a region of the lower back of wild-type nonirradiated mice was shaved and depilated. Depilation induced a new hair growth cycle, thereby permitting to test if in this context rapamycin could prevent the onset of or lengthen the duration of the hair cycle. […]

Compound | side effects (hirsutism) | percentage of hair follicles containing DCT-LacZ+ cells, Average (DCT-LacZ mice [1]; Week 8) | percentage of hair follicles containing DCT-LacZ+ cells, individual mouse (DCT-LacZ mice [1]; Week 8) | percentage of hair follicles containing DCT-LacZ+ cells, Average (DCT-LacZ mice [1]; Week 10) | percentage of hair follicles containing DCT-LacZ+ cells, individual mouse (DCT-LacZ mice [1]; Week 10) | percentage of hair follicles containing DCT-LacZ+ cells, Average (DCT-LacZ mice [1]; Week 12) | percentage of hair follicles containing DCT-LacZ+ cells, individual mouse (DCT-LacZ mice [1]; Week 12) | percentage of hair follicles containing DCT-LacZ+ cells, Average (DCT-LacZ mice [1]; Week 14) | percentage of hair follicles containing DCT-LacZ+ cells, individual mouse (DCT-LacZ mice [1]; Week 14) | animals with hairs in anagen (DCT-LacZ mice [2]) | days until pigmentation was visible in skin ([3]; n=5, vehicle 16.7 days, p=0.04) | delay of change in skin color (progression through anagen) versus vehicle ([3]; on average)
NCCCC(N)(C(=O)O)C(F)F (stereo not drawn) [Eflornithine] | minor skin irritation, folliculitis, stinging, burning, tingling, acne, and/or rash | – | – | – | – | – | – | – | – | – | – | –
CO[C@H]1C[C@@H]2CC[C@@H](C)[C@@](O)(O2)C(=O)C(=O)N2CCCC[C@H]2C(=O)O[C@H]([C@H](C)C[C@@H]2CC[C@@H](O)[C@H](OC)C2)CC(=O)[C@H](C)/C=C(\C)[C@@H](O)[C@@H](OC)C(=O)[C@H](C)C[C@H](C)/C=C/C=C/C=C/1C [Rapamycin] | – | 61.0% | 77.0% and 45.0% | 34.1% | 19.3% and 22.0% and 42.0% and 53.0% | 48.3% | 54.0% and 39.0% and 52.0% | 40.5% | 53.0% and 42.0% and 17.0% and 50.0% | 11% | 25.2 days | 8 days
